Laboratory results as given in patent publication US20220389389A1, “METHODS AND A KIT TO REPROGRAM SOMATIC CELLS” (Novoxyne LLC, priority 2019, published 2022).

Assays:
PIFs = conditions: in vitro culture; cited from earlier work
[1] = cited from earlier work
[2] = test system: iPSC generation from fibroblasts; conditions: without c-Myc and Klf4; cited from earlier work
bone marrow cells = assay: MSAIC inhibition assay with GsMTX4 / matrix stiffness culture, PI gene messages by real time PCR; format: cell-based, mouse; conditions: 5 μM GsMTX4, 16 hours
Protocol: (§1) C57BL/6 male mice (4-6 weeks old) were purchased from Jackson Laboratory. Bone marrow cells and spleen cells were obtained from 4-6-week-old male C57BL/6 mice. Cells in single cell suspension were red cell-depleted before use. Bone marrow stromal cells were cultured and passaged in T75 culture flask as it was described [Torino et al., Bio-protocol 4: e1031 (2014)]. The embryonic fibroblast was prepared from 13-day fetus of C57BL/6 as described previously [Qiu et al., Bio-protocol 6: e1859 (2016)]. Cells used for the reprogramming were those cultured for 2 to 4 passage periods.
(§2) Cells were cultured in 6 well plates (10^7 cells/well) in triplicate per group. GsMTX4 dissolved in PBS was added to the concentration 5 μM in the experimental group. Sixteen hours later, cells were harvested by scraper for spleen cells and bone marrow cells, pelleted for total RNA-extraction with RNeasy (Qiagen) or Trizol (Invitrogen). For EF cells and BM stromal cells, cell culture medium was drained and directly resuspended to the cell lysis buffer in the culture wells. Extracted RNAs were subjected to cDNA synthesis (Applied Bioscience) and analyzed for the messages specific for mouse PI genes and control genes by real time PCR thereto cycler (Bio-Rad, CFX384). Primers used were: Oct4 (5′: […] (SEQ ID NO:5), 3′: […] (SEQ ID NO:6), Sox2 (5′: […] (SEQ ID NO:7), 3′: […] (SEQ ID NO:8), Nanog (5′: […] ([…]), 3′: […] (SEQ ID NO:10), CFBP/α (5′: […] (SEQ ID NO:11), 3′: […] (SEQ ID NO:12), c-Myc (5′: […] (SEQ ID NO:13), 3′: TTATGCACCAGAGTTTCG (SEQ ID NO:14), RUNX1 (5′: […] (SEQ ID NO:15), 3′: […] (SEQ ID NO:16), PU1 (5′: […] (SEQ ID NO:17), 3′: […] (SEQ ID NO:18), IRF8 (5′: […] (SEQ ID NO:19), 3′: […] (SEQ ID NO:20), FOXP1 (5′: […] (SEQ ID NO:21), 3′: […] (SEQ ID NO:22), KLF4 (5′: […] (SEQ ID NO:23), 3′: […] (SEQ ID NO:24), Actin (5′: […] (SEQ ID NO:25), 3′: […] (SEQ ID NO:26), GAPDH 5′: […] (SEQ ID NO:27), 3′: […] (SEQ ID NO:28). The value of each Cq (Ct) were applied to the formula by which the message level of each specific gene (shown by the index value) was estimated in comparison to that of Actin or GAPDH housekeeping genes.
(§3) Tissue culture plates with defined elasticity surface (0.2, 4, 50 kpa) were purchased from Matrigen. To cast polyacrylamide gel in petri-dishes, 3.5 cm petri-dish was used. Each dish was loaded with 330 μL of polyacrylamide gel cocktail and promptly the size-matched drop lid (polypropylene) was placed on the top (FIG. 30). Three different elasticities of the polyacrylamide gel were prepared in the study. The ratio of [acrylamide (40%): bis-acrylamide (2%): water] was determined according from the published data [Tse and Engler, Curr. Protoc. Cell Biol. Chapt. 10 Unit 10.16 (2010)]. Those were (75:112.5:812.5) for 1.7 kpa, (100:150:750) for 3.2 kpa and (250:30:720) for 7.4 kpa. The slice of the 50 ml conical centrifuge tube caps were used for the drop caps (arrow-pointed in FIG. 30).
In experiments, mouse bone marrow cells were in vitro 37° C. cultured 16 hours in the presence of 5 μM GsMTX4. Cells were then assayed for the PI genes' messages as listed in the left of the FIG. 1. […] The presence of GsMTX4 in the culture was expected to prevent cells from sensing the strong stretch stress by MSAICs. Strikingly, the cells cultured in the presence of GsMTX4 expressed greater than 100 times of Oct4 message compared with the control cells (FIG. 1). […] 10(1): e1004079 (2014); North et al., Stem Cells. 22:158 (2004)].
The fresh bone marrow cells were cultured for 16 hours in 6 well plates with GsMTX4 (5 μM) in DMEM supplemented with 10% FBS. The messages specific for the genes listed in the left were real time PCR-characterized and presented as the relative index in comparison with the value of β-actin message. […]

spleen cells = assay: MSAIC inhibition assay with GsMTX4, PI gene messages by real time PCR; format: cell-based, mouse
Protocol: as §1
as §2, with “The value of each Cq (Ct) were applied to the formula by which the message level of each specific gene (shown by the index value) was estimated in comparison to that of Actin or GAPDH housekeeping genes.” left out
Spleen cells were 37° C.-treated with MβCD before the in vitro culture with GsMTX4 as described in FIG. 1. ND: not detected.

[3] = test system: bone marrow stroma cell line; assay: as above; format: cell-based, mouse; conditions: GsMTX4, O/N culture
Protocol: as §1
(§4) Cells were cultured in 6 well plates (10^7 cells/well) in triplicate per group. GsMTX4 dissolved in PBS was added to the concentration 5 μM in the experimental group. Sixteen hours later, cells were harvested by scraper for spleen cells and bone marrow cells, pelleted for total RNA-extraction with RNeasy (Qiagen) or Trizol (Invitrogen). For EF cells and BM stromal cells, cell culture medium was drained and directly resuspended to the cell lysis buffer in the culture wells. Extracted RNAs were subjected to cDNA synthesis (Applied Bioscience) and analyzed for the messages specific for mouse PI genes and control genes by real time PCR thereto cycler (Bio-Rad, CFX384). […]

EF cells [4] = assay: as above; format: cell-based, mouse
Protocol: as §1, §4

EF cells [5] = assay: RT-PCR assay for the expression of PI genes in the reprogramming cultures of EF cells; format: cell-based, mouse
Protocol: Cells were suspended in DMEM supplemented with 5 mM MβCD at the concentration of 2×10^6/ml in 15 ml centrifuge tube. Cell suspension was incubated for 30 min at 37° C. with every 5 min gentle agitations. Washed once with 37° C. warmed DMEM/F12 and resuspended in small volume complete medium (30 μl/2×10^6 cells) [DMEM/F12 (Corning), 20% knockout serum replacement (Gibco), 1% nonessential amino acids (Gibco), 5×10^−5M 2-Mercaptethanol]. To initiate reprogramming culture on hydrogel, petri dish was added with 2.5 ml complete medium, then 30 μl of cell suspension was loaded on the hydrogel. Multiple dishes were housed in a 15 cm diameter petri dish with a water filled un-lid 6 cm petri dish. Cells on the gel and on the dish-bottom surface were monitored daily and the remarkable phenotype cells were recorded with EVOS cell monitoring system (Thermofisher). Various phenotype cells were characterized by the assays for the markers specific for the cell lineages (e.g., Oil red 0 for the adipocytes and alizarin for calcium deposited cells) as commonly available methods.
Cells derived from the MβCD-treated and hydrogel-exposed culture in petri dish were subjected to the extraction of total RNA by Trizol. cDNAs were prepared as described above and the regular PCR was performed (35 cycle) using PCR master mix (Biotool) and the primers listed above for the real time PCR assays. The PCR products were resolved using 1.5% agarose gel, Ethidium Bromide-stained and the results were acquired by Gel Documentation system (Bio-Rad).
EF cells were MβCD-treated and cultured in the hydrogel-casted petri dishes for 7 days before RNA extraction. The stiffness of the hydrogel was listed on the top of each lane. Total RNAs from spheres and dish-adhered cells were analyzed for the expression of the PI genes by RT-PCR. PCR-amplified fragments were dissolved by 1.5% agarose gel and stained by Ethidium Bromide. […]
EF cells were MβCD-treated and cultured in the petri dishes. […] The message for each PI gene was analyzed as described in FIG. 1 and shown in B.

EF cells [6] = assay: Reprogramming and differentiation culture of EF cells, microscopy and staining; format: cell-based, mouse
Protocol: as §3
Ninety minutes later drop lids were carefully removed and the gels in the dishes were washed 5 times with 3 ml of sterile water. Each aspiration of the water from the dish was gently performed with 1 ml micro pipettor. During the washing, casted acrylamide gel come off the bottom. […]
Cells were suspended in DMEM supplemented with 5 mM MβCD at the concentration of 2×10^6/ml in 15 ml centrifuge tube. […] Cells on the gel and on the dish-bottom surface were monitored daily and the remarkable phenotype cells were recorded with EVOS cell monitoring system (Thermofisher). […]

Human PBMC = assay: Nuclear reprogramming of human peripheral blood mononuclear cells; format: cell-based; conditions: 5 mM MβCD twice 20 min, then soft polyacrylamide gel culture
Source text: Human PBMC is an attractive source of somatic cells for reprogramming to stem cells by the available iPSC technology. The sampling of the peripheral blood is a common practice in the medicine and possible to obtain at the individual specific fashion. The purification of the PBMC is also a regular method by Ficol gradient centrifugation. […] 27, 10-(2018), U.S. Pat. No. 9,447,382B2]. To investigate if the methods of the current invention can apply to reprogram human PBMC into the stem cell-like cells, and also differentiate into the de novo phenotypes in vitro, experiments were conducted in which cell were treated with MβCD and then cultured on the soft polyacrylamide gel as described infula.
Human peripheral blood was corrected into the heparinized tube from left forearm vein. The blood mononuclear cells were separated using the Ficoll-Hypaque technique (density, 1.077; Pharmacia Biotech, Uppsala, Sweden). Cells were twice repeatedly 37° C. incubated for 20 min with 5 mM MβCD in DMEM, pelleted by centrifugation at 900 g at room temperature. Washed once with 37° C. warmed DMEM/F12 and resuspended in small volume complete medium (30 μl/2×10^6 cells) [DMEM/F12 (Corning), 20% knockout serum replacement (Gibco), 1% nonessential amino acids (Gibco), 5×10^−5M 2-Mercaptethanol]. Cells in the culture petri-dishes were monitored daily by microscopy and novel phenotype cells were recorded. […]

Molecule: C[S+](C)[O-] [DMSO]
- expression of PIFs (PIFs): repressed

Molecule: Cc1c(C(=O)Nc2cccc(C(F)(F)F)c2)cc(-c2ccccc2)n1CCCN1CCOCC1 [HC 067047]
- solubility [1]: only soluble in DMSO or alcohols

Molecule: CCCC(CCC)C(=O)O [Valproic acid]
- increase of reprogramming efficiency over the four transcription factor method [2]: 100 fold

Molecule: GsMTX4
- C/EBPα expression (bone marrow cells): activated prominently
- FOXP1 (non-PI gene) expression change (bone marrow cells): the expression change was small
- IRF8 (non-PI gene) expression change (bone marrow cells): the expression change was small
- RUNX1 expression (bone marrow cells): activated prominently
- Sox2 expression (bone marrow cells): activated prominently
- Oct4 message compared with the control cells (bone marrow cells; 37° C., polystyrene surface): greater than 100 times
- PI genes expression (spleen cells; GsMTX4, 16 hours): consistently repressed
- PI genes expression (spleen cells; GsMTX4, day 3): activation of the PI genes was significantly observed
- PI genes expression [3]: resembled to that of fresh bone marrow cells
- PI genes expression (EF cells [4]; GsMTX4, 16 hours): responded like that observed in the study of fresh spleen cells
- PI genes expression (EF cells [4]; GsMTX4, day 3): found activated
- solubility [1]: water soluble

Molecule: methyl-β-cyclodextrin [MβCD]
- PI genes expression in response to GsMTX4 after MβCD treatment (spleen cells; 37° C. MβCD treatment, then GsMTX4 O/N culture): activation of PI genes
- time to detection of un-spliced PI gene messages after cholesterol depletion (EF cells [5]; MβCD-treated EF cells attached to dish bottom): ≤ 24 h
- presence of spliced PI gene messages (EF cells [5]; MβCD-treated EF cells attached to dish bottom, day 1, 4, 7): present only in the cells cultured 7 days
- messages for Oct4, Nanog, and Sox2 at predicted sizes in bottom-adhered cells (EF cells [5]; MβCD-treated, hydrogel-casted petri dishes, 7 days): significant messages
- efficiency of generating stem cell-like / differentiated cells (EF cells [6]; EF cells): greater efficiency than that of the hydrogel only
- sphere formation on hydrogel (EF cells [6]; MβCD, then low pascal hydrogels (1.7, 3.2, 7.4 kpa), O/N culture): formation of various size spheres were observed
- appearance of novel-phenotype cells (Human PBMC): observed novel-phenotype cells
